Experimental data as given in ChEMBL document CHEMBL3885861, “Open TG-GATES”.

Species on record: Rattus norvegicus
Experiment: Open TG-GATES - Regimen: Daily Repeat
Assay type: toxicity, organism-based, Sprague-Dawley
Set-up: regimen Daily Repeat, gender Male, age 6 weeks
Details: in vivo, po, 0 mg/kg, route gavage, dose level Control; for APTT / Bas / Eos / Fbg / Hb / Ht / Lym / MCH / MCHC / MCV / Mono / Neu / PT / Plat / RBC / Ret / WBC: tissue Blood; for KIDNEY_L / KIDNEY_R / KIDNEY_TOTAL: tissue Kidney; for LIVER: tissue Liver; for A/G / ALP / ALT / AST / BUN / CRE / Ca / Cl / DBIL / GLC / IP / K / LDH / Na / PL / RALB / TBIL / TC / TG / TP / gamma-GTP: tissue Plasma

CN1C(=O)CCS(=O)(=O)C1c1ccc(Cl)cc1 (configuration not stated) [CHLORMEZANONE]
TERMINAL_BW (72 h, time 3 day): 227.8 g | APTT (72 h, time 3 day): 15.7 s | Bas (72 h, time 3 day): 0% | Eos (72 h, time 3 day): 1% | Fbg (72 h, time 3 day): 283.6 mg/dL | Hb (72 h, time 3 day): 13.4 g/dL | Ht (72 h, time 3 day): 39.1% | Lym (72 h, time 3 day): 77.8% | MCH (72 h, time 3 day): 22.1 pg | MCHC (72 h, time 3 day): 34.4% | MCV (72 h, time 3 day): 64.3 fL | Mono (72 h, time 3 day): 3% | Neu (72 h, time 3 day): 17.8% | PT (72 h, time 3 day): 12 s | Plat (72 h, time 3 day): 114.7 x10_4/uL | RBC (72 h, time 3 day): 608.2 x10_4/ul | Ret (72 h, time 3 day): 6.7% | WBC (72 h, time 3 day): 81.1 x10_2/uL | KIDNEY_L (72 h, time 3 day): 0.9 g | KIDNEY_R (72 h, time 3 day): 0.9 g | KIDNEY_TOTAL (72 h, time 3 day): 1.8 g | LIVER (72 h, time 3 day): 10.6 g | A/G (72 h, time 3 day): 0.9 | ALP (72 h, time 3 day): 1545.4 IU/L | ALT (72 h, time 3 day): 48.4 IU/L | AST (72 h, time 3 day): 68.2 IU/L | BUN (72 h, time 3 day): 14.6 mg/dL | CRE (72 h, time 3 day): 0.2 mg/dL | Ca (72 h, time 3 day): 10.9 mg/dL | Cl (72 h, time 3 day): 108.4 meq/L | DBIL (72 h, time 3 day): 0.01 mg/dL | GLC (72 h, time 3 day): 193.6 mg/dL | IP (72 h, time 3 day): 6.7 mg/dL | K (72 h, time 3 day): 4.2 meq/L | LDH (72 h, time 3 day): 63.4 IU/L | Na (72 h, time 3 day): 143.4 meq/L | PL (72 h, time 3 day): 148.4 mg/dL | RALB (72 h, time 3 day): 2.7 g/dL | TBIL (72 h, time 3 day): 0.026 mg/dL | TC (72 h, time 3 day): 88.8 mg/dL | TG (72 h, time 3 day): 90 mg/dL | TP (72 h, time 3 day): 5.8 g/dL | gamma-GTP (72 h, time 3 day): 1.2 IU/L | TERMINAL_BW ([…], time 7 day): 269.2 g | TERMINAL_BW ([…], time 14 day): 301.6 g | TERMINAL_BW ([…], time 28 day): 393 g | APTT ([…], time 7 day): 17.6 s | Bas ([…], time 7 day): 0% | Eos ([…], time 7 day): 0.8% | Fbg ([…], time 7 day): 294.6 mg/dL | Hb ([…], time 7 day): 13.9 g/dL | Ht ([…], time 7 day): 41% | Lym ([…], time 7 day): 79.4% | MCH ([…], time 7 day): 22.1 pg | MCHC ([…], time 7 day): 33.9% | MCV ([…], time 7 day): 65.3 fL | Mono ([…], time 7 day): 2.4% | Neu ([…], time 7 day): 16.6% | PT ([…], time 7 day): 11.9 s | Plat ([…], time 7 day): 113.1 x10_4/uL | RBC ([…], time 7 day): 627.6 x10_4/ul | Ret ([…], time 7 day): 6.5% | WBC ([…], time 7 day): 91.2 x10_2/uL | APTT ([…], time 14 day): 16.9 s | Bas ([…], time 14 day): 0% | Eos ([…], time 14 day): 1% | Fbg ([…], time 14 day): 306.8 mg/dL | Hb ([…], time 14 day): 14.5 g/dL | Ht ([…], time 14 day): 41.2% | Lym ([…], time 14 day): 76.2% | MCH ([…], time 14 day): 20.7 pg | MCHC ([…], time 14 day): 35.3% | MCV ([…], time 14 day): 58.8 fL | Mono ([…], time 14 day): 2% | Neu ([…], time 14 day): 20.4% | PT ([…], time 14 day): 11.8 s | Plat ([…], time 14 day): 123 x10_4/uL | RBC ([…], time 14 day): 701 x10_4/ul | Ret ([…], time 14 day): 3.5% | WBC ([…], time 14 day): 70.8 x10_2/uL | APTT ([…], time 28 day): 17.9 s | Bas ([…], time 28 day): 0% | Eos ([…], time 28 day): 1% | Fbg ([…], time 28 day): 293.6 mg/dL | Hb ([…], time 28 day): 15 g/dL | Ht ([…], time 28 day): 42.2% | Lym ([…], time 28 day): 75.4% | MCH ([…], time 28 day): 20.2 pg | MCHC ([…], time 28 day): 35.5% | MCV ([…], time 28 day): 56.8 fL | Mono ([…], time 28 day): 2.4% | Neu ([…], time 28 day): 20.6% | PT ([…], time 28 day): 11.8 s | Plat ([…], time 28 day): 99.4 x10_4/uL | RBC ([…], time 28 day): 744.8 x10_4/ul | Ret ([…], time 28 day): 2.6% | WBC ([…], time 28 day): 82.8 x10_2/uL | KIDNEY_L ([…], time 7 day): 1 g | KIDNEY_R ([…], time 7 day): 1 g | KIDNEY_TOTAL ([…], time 7 day): 2.1 g | KIDNEY_L ([…], time 14 day): 1.2 g | KIDNEY_R ([…], time 14 day): 1.1 g | KIDNEY_TOTAL ([…], time 14 day): 2.3 g | KIDNEY_L ([…], time 28 day): 1.4 g | KIDNEY_R ([…], time 28 day): 1.3 g | KIDNEY_TOTAL ([…], time 28 day): 2.7 g | LIVER ([…], time 7 day): 13 g | LIVER ([…], time 14 day): 12.6 g | LIVER ([…], time 28 day): 16 g | A/G ([…], time 7 day): 0.9 | ALP ([…], time 7 day): 1745 IU/L | ALT ([…], time 7 day): 44 IU/L | AST ([…], time 7 day): 68.2 IU/L | BUN ([…], time 7 day): 16.6 mg/dL | CRE ([…], time 7 day): 0.2 mg/dL | Ca ([…], time 7 day): 11.6 mg/dL | Cl ([…], time 7 day): 107.8 meq/L | DBIL ([…], time 7 day): 0.016 mg/dL | GLC ([…], time 7 day): 181.4 mg/dL | IP ([…], time 7 day): 6.9 mg/dL | K ([…], time 7 day): 4.3 meq/L | LDH ([…], time 7 day): 89.8 IU/L | Na ([…], time 7 day): 144 meq/L | PL ([…], time 7 day): 152 mg/dL | RALB ([…], time 7 day): 2.8 g/dL | TBIL ([…], time 7 day): 0.034 mg/dL | TC ([…], time 7 day): 82.6 mg/dL | TG ([…], time 7 day): 121.6 mg/dL | TP ([…], time 7 day): 6 g/dL | gamma-GTP ([…], time 7 day): 1 IU/L | A/G ([…], time 14 day): 0.8 | ALP ([…], time 14 day): 1484.4 IU/L | ALT ([…], time 14 day): 48 IU/L | AST ([…], time 14 day): 63.8 IU/L | BUN ([…], time 14 day): 14.4 mg/dL | CRE ([…], time 14 day): 0.2 mg/dL | Ca ([…], time 14 day): 11.2 mg/dL | Cl ([…], time 14 day): 107.8 meq/L | DBIL ([…], time 14 day): 0.008 mg/dL | GLC ([…], time 14 day): 191.6 mg/dL | IP ([…], time 14 day): 6.3 mg/dL | K ([…], time 14 day): 4 meq/L | LDH ([…], time 14 day): 47 IU/L | Na ([…], time 14 day): 143.6 meq/L | PL ([…], time 14 day): 136.4 mg/dL | RALB ([…], time 14 day): 2.8 g/dL | TBIL ([…], time 14 day): 0.064 mg/dL | TC ([…], time 14 day): 70.8 mg/dL | TG ([…], time 14 day): 74.8 mg/dL | TP ([…], time 14 day): 6.1 g/dL | gamma-GTP ([…], time 14 day): 1 IU/L | A/G ([…], time 28 day): 0.8 | ALP ([…], time 28 day): 1035.2 IU/L | ALT ([…], time 28 day): 45.6 IU/L | AST ([…], time 28 day): 62.8 IU/L | BUN ([…], time 28 day): 14 mg/dL | CRE ([…], time 28 day): 0.3 mg/dL | Ca ([…], time 28 day): 10.8 mg/dL | Cl ([…], time 28 day): 106.2 meq/L | DBIL ([…], time 28 day): 0.006 mg/dL | GLC ([…], time 28 day): 183.2 mg/dL | IP ([…], time 28 day): 6 mg/dL | K ([…], time 28 day): 4 meq/L | LDH ([…], time 28 day): 57 IU/L | Na ([…], time 28 day): 142.4 meq/L | PL ([…], time 28 day): 143.6 mg/dL | RALB ([…], time 28 day): 2.8 g/dL | TBIL ([…], time 28 day): 0.062 mg/dL | TC ([…], time 28 day): 74.8 mg/dL | TG ([…], time 28 day): 88 mg/dL | TP ([…], time 28 day): 6.3 g/dL | gamma-GTP ([…], time 28 day): 1 IU/L
